Our source for the Emax and EC50 values is patent US20260274799A1, “HETEROCYCLIC DERIVATIVES, COMPOSITIONS AND USES THEREOF” (DANATLAS PHARMACEUTICALS CO., LTD., priority 2023, published 2026).

In the assay the target is T1, PPARγ-LBD (UniProt ID: P37231-2) (Homo sapiens, UniProt P37231).
T1 construct: PPARγ-LBD (UniProt ID: P37231-2) was expressed and purified in insect system; made in house
T1 sequence (P37231 238-503 limits assumed): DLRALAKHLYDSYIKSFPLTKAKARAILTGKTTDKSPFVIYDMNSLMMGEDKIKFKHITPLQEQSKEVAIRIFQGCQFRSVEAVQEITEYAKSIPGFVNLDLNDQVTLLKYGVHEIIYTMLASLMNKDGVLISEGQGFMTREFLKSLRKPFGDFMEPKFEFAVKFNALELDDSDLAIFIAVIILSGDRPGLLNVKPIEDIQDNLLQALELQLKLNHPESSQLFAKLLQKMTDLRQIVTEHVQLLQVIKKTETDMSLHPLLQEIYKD
Briefly: PPARγ-SMRT recruitment assay (TR-FRET). Format: biochemical. The conditions noted are these: for Emax: 1 h, max value of % Activation, high control 10 uM control compound, low control 1% DMSO, read-out: Top %; for EC50: TR-FRET, SMRT peptide recruitment to PPARγ-LBD, 120 min pre-incubation. Here is the method:
PPARγ TR-FRET assay was initiated to evaluate potential activatory effect of the compounds of the present disclosure for SMRT recruitment to PPARγ protein. PPARγ-LBD (UniProt ID: P37231-2) was expressed and purified in insect system and stored at −80° C. in aliquots. Biotinylated SMRT peptide was synthesized (Biotin-[…]). 5 μL protein solution mixture consisting of 10 nM PPARγ-LBD and 2 nM Anti-His Eu (Cisbio, 61HISKLA) in assay buffer (25 mM HEPES pH7.4, 25 mM KCl, 1 mM EDTA, 0.01% BSA, 0.01% Tween-20, 1 mM TCEP) was added to 384-well plates containing duplicate 10-point dose response titration of compounds in 5 μL assay buffer (1% f.c. DMSO(v/v)). After 120 min pre-incubation at room temperature, 5 μL peptide solution mixture consisting of 50 nM Biotin-SMRT peptide and 25 nM Streptavidin-XL665 (Cisbio, 610SAXLA) added to plates. Plates were incubated for 60 min. and read in CLARIOstar Plus plate reader with Ex/Em 620 nm/[…]. Average TR-FRET ratio of high control (Wells with 10 uM control compound) was calculated as High Control (HC). Average TR-FRET ratio of low control (Wells with 1% DMSO) was calculated as Low control (LC). For one compound, top % is the max value of % Activation.
EC50 values were determined by fitting the data to the standard 4 parameters with Hill Slope using GraphPad Prism software. […] ND: No Determine.
For orientation: TR-FRET usually uses a lanthanide donor and a delayed reading to cut background.

Usually EC50 stands for the concentration at which the effect is half-maximal. Take `CCC#Cc1c(F)cc2[nH]c(-c3cc(C#N)ccc3S(C)(=O)=O)cc(=O)c2c1F` [Example 20, 3-(6-(But-1-yn-1-yl)-5,7-difluoro-4-oxo-1,4-dihydroquinolin-2-yl)-4-(methylsulfonyl)benzonitrile]: the Emax was 210% and the EC50 is < 100 nM.

For the compound `Cc1cnccc1C#Cc1c(F)cc2[nH]c(-c3cc(C#N)ccc3S(C)(=O)=O)cc(=O)c2c1F` [Example 28, 3-(5,7-Difluoro-6-((3-methylpyridin-4-yl)ethynyl)-4-oxo-1,4-dihydroquinolin-2-yl)-4-(methylsulfonyl)benzonitrile], the Emax stood at 293% and the EC50 was < 100 nM.

Turning to `Cc1ccc(C#Cc2c(F)cc3[nH]c(-c4cc(C#N)ccc4S(C)(=O)=O)cc(=O)c3c2F)cc1` [Example 39, 3-(5,7-Difluoro-4-oxo-6-(p-tolylethynyl)-1,4-dihydroquinolin-2-yl)-4-(methylsulfonyl)benzonitrile], the Emax was 406% and the EC50 was < 100 nM.

Take `CC(C)(N)C#Cc1c(F)cc2[nH]c(-c3cc(C#N)ccc3S(C)(=O)=O)cc(=O)c2c1F` [Example 8, 3-(6-(3-Amino-3-methylbut-1-yn-1-yl)-5,7-difluoro-4-oxo-1,4-dihydroquinolin-2-yl)-4-(methylsulfonyl)benzonitrile]: the Emax turned out to be 208% and the EC50 is < 100 nM.

`Cn1cc(C#Cc2c(F)cc3[nH]c(-c4cc(C#N)ccc4S(C)(=O)=O)cc(=O)c3c2F)cn1` [Example 12, 3-(5,7-Difluoro-6-((1-methyl-1H-pyrazol-4-yl)ethynyl)-4-oxo-1,4-dihydroquinolin-2-yl)-4-(methylsulfonyl)benzonitrile]: the Emax came out at 181% and the EC50 is < 100 nM.

Take `Cc1noc(C)c1C#Cc1c(F)cc2[nH]c(-c3cc(C#N)ccc3S(C)(=O)=O)cc(=O)c2c1F` [Example 35, 3-(6-((3,5-Dimethylisoxazol-4-yl)ethynyl)-5,7-difluoro-4-oxo-1,4-dihydroquinolin-2-yl)-4-(methylsulfonyl)benzonitrile]: the Emax amounted to 243% and the half-maximal effective concentration (EC50) was < 100 nM.

For the compound `Cc1ncccc1C#Cc1c(F)cc2[nH]c(-c3cc(C#N)ccc3S(C)(=O)=O)cc(=O)c2c1F` [Example 29, 3-(5,7-Difluoro-6-((2-methylpyridin-3-yl)ethynyl)-4-oxo-1,4-dihydroquinolin-2-yl)-4-(methylsulfonyl)benzonitrile], the Emax was 357% and the EC50 is < 100 nM.

Take `COCCC#Cc1c(F)cc2[nH]c(-c3cc(C#N)ccc3S(C)(=O)=O)cc(=O)c2c1F` [Example 49, 3-(5,7-Difluoro-6-(4-methoxybut-1-yn-1-yl)-4-oxo-1,4-dihydroquinolin-2-yl)-4-(methylsulfonyl)benzonitrile]: the EC50 is < 100 nM.

As to `Cc1cncc(C)c1C#Cc1c(F)cc2[nH]c(-c3cc(C#N)ccc3S(C)(=O)=O)cc(=O)c2c1F` [Example 32, 3-(6-((3,5-Dimethylpyridin-4-yl)ethynyl)-5,7-difluoro-4-oxo-1,4-dihydroquinolin-2-yl)-4-(methylsulfonyl)benzonitrile], the Emax is 343% and the half-maximal effective concentration (EC50) was < 100 nM.

For the compound `C[C@H](O)C#Cc1c(F)cc2[nH]c(-c3cc(C#N)ccc3S(C)(=O)=O)cc(=O)c2c1F` [Example 5, (S)-3-(5,7-Difluoro-6-(3-hydroxybut-1-yn-1-yl)-4-oxo-1,4-dihydroquinolin-2-yl)-4-(methylsulfonyl)benzonitrile], the Emax was 367% and the EC50 was < 100 nM.

On to `CS(=O)(=O)c1ccc(C#N)cc1-c1cc(=O)c2c(F)c(C#CC3COC3)c(F)cc2[nH]1` [Example 24, 3-(5,7-Difluoro-6-(oxetan-3-ylethynyl)-4-oxo-1,4-dihydroquinolin-2-yl)-4-(methylsulfonyl)benzonitrile], for which the Emax was 197% and the EC50 is < 100 nM.

For `CCS(=O)(=O)c1ccc(C#N)cc1-c1cc(=O)c2c(F)c(C#CC3COC3)c(F)cc2[nH]1` [Example 46, 3-(5,7-Difluoro-6-(oxetan-3-ylethynyl)-4-oxo-1,4-dihydroquinolin-2-yl)-4-(ethylsulfonyl)benzonitrile], the Emax stood at 174% and the half-maximal effective concentration (EC50) is < 100 nM.

As to `CC(C)(O)C#Cc1c(F)cc2[nH]c(-c3cc(C#N)ccc3S(C)(=O)=O)cc(=O)c2c1F` [Example 1, 3-(5,7-Difluoro-6-(3-hydroxy-3-methylbut-1-yn-1-yl)-4-oxo-1,4-dihydroquinolin-2-yl)-4-(methylsulfonyl)benzonitrile], the Emax is 495% and the EC50 was < 100 nM.

Take `COc1cccnc1C#Cc1c(F)cc2[nH]c(-c3cc(C#N)ccc3S(C)(=O)=O)cc(=O)c2c1F` [Example 38, 3-(5,7-Difluoro-6-((3-methoxypyridin-2-yl)ethynyl)-4-oxo-1,4-dihydroquinolin-2-yl)-4-(methylsulfonyl)benzonitrile]: the EC50 is < 100 nM.

Compound `Cc1ccc(S(C)(=O)=O)c(-c2cc(=O)c3c(F)c(CCC4CCOCC4)c(F)cc3[nH]2)c1` [Example 56, 5,7-Difluoro-2-(5-methyl-2-(methylsulfonyl)phenyl)-6-(2-(tetrahydro-2H-pyran-4-yl)ethyl)quinolin-4(1H)-one] returned an EC50 of 100 to 1000 nM.

Consider `Cc1cccc(C#Cc2c(F)cc3[nH]c(-c4cc(C#N)ccc4S(C)(=O)=O)cc(=O)c3c2F)n1` [Example 31, 3-(5,7-Difluoro-6-((6-methylpyridin-2-yl)ethynyl)-4-oxo-1,4-dihydroquinolin-2-yl)-4-(methylsulfonyl)benzonitrile], for which the Emax came to 181% and the EC50 was < 100 nM.

As for `Cc1cc(C#Cc2c(F)cc3[nH]c(-c4cc(C#N)ccc4S(C)(=O)=O)cc(=O)c3c2F)ccn1` [Example 27, 3-(5,7-Difluoro-6-((2-methylpyridin-4-yl)ethynyl)-4-oxo-1,4-dihydroquinolin-2-yl)-4-(methylsulfonyl)benzonitrile], the EC50 is < 100 nM.

For the compound `C#Cc1c(F)cc2[nH]c(-c3cc(C#N)ccc3S(C)(=O)=O)cc(=O)c2c1F` [Example 2, 3-(6-Ethynyl-5,7-difluoro-4-oxo-1,4-dihydroquinolin-2-yl)-4-(methylsulfonyl)benzonitrile], the Emax was found to be 311% and the EC50 was < 100 nM.

For the compound `CS(=O)(=O)c1ccc(C#N)cc1-c1cc(=O)c2c(F)c(CCC3CCOCC3)c(F)cc2[nH]1` [Example 25, 3-(5,7-Difluoro-4-oxo-6-(2-(tetrahydro-2H-pyran-4-yl)ethyl)-1,4-dihydroquinolin-2-yl)-4-(methylsulfonyl)benzonitrile], the EC50 is < 100 nM.

For `CS(=O)(=O)c1ccc(C#N)cc1-c1cc(=O)c2c(F)c(OCc3ccccc3)c(F)cc2[nH]1` [Example 18, 3-(6-(Benzyloxy)-5,7-difluoro-4-oxo-1,4-dihydroquinolin-2-yl)-4-(methylsulfonyl)benzonitrile], the EC50 was < 100 nM.

As for `CS(=O)(=O)c1ccc(C#N)cc1-c1cc(=O)c2c(F)c(C#Cc3ccncc3)c(F)cc2[nH]1` [Example 22, 3-(5,7-Difluoro-4-oxo-6-(pyridin-4-ylethynyl)-1,4-dihydroquinolin-2-yl)-4-(methylsulfonyl)benzonitrile], the EC50 was < 100 nM.

For `CS(=O)(=O)c1ccc(C#N)cc1-c1cc(=O)c2c(F)c(C#CC3CCOC3)c(F)cc2[nH]1` (stereo not shown) [Example 34, 3-(5,7-Difluoro-4-oxo-6-((tetrahydrofuran-3-yl)ethynyl)-1,4-dihydroquinolin-2-yl)-4-(methylsulfonyl)benzonitrile], the Emax came to 290% and the EC50 is < 100 nM.

As for `CS(=O)(=O)c1ccc(C#N)cc1-c1cc(=O)c2c(F)c(C#Cc3ccccc3Cl)c(F)cc2[nH]1` [Example 33, 3-(6-((2-Chlorophenyl)ethynyl)-5,7-difluoro-4-oxo-1,4-dihydroquinolin-2-yl)-4-(methylsulfonyl)benzonitrile], the Emax came out at 502% and the EC50 was < 100 nM.

As to `CS(=O)(=O)c1ccc(C#N)cc1-c1cc(=O)c2c(F)c(C#Cc3ccccc3C(F)(F)F)c(F)cc2[nH]1` [Example 44, 3-(5,7-Difluoro-4-oxo-6-((2-(trifluoromethyl)phenyl)ethynyl)-1,4-dihydroquinolin-2-yl)-4-(methylsulfonyl)benzonitrile], the Emax stood at 286% and the EC50 is < 100 nM.

For `CS(=O)(=O)c1ccc(C#N)cc1-c1cc(=O)c2c(F)c(C#Cc3ccccc3C#N)c(F)cc2[nH]1` [Example 42, 3-(6-((2-Cyanophenyl)ethynyl)-5,7-difluoro-4-oxo-1,4-dihydroquinolin-2-yl)-4-(methylsulfonyl)benzonitrile], the Emax amounted to 231% and the EC50 is < 100 nM.
